Reference: patent US8026217B2, “Compositions and methods for treating neural anoxia and spreading depression” (Florida Atlantic University, priority 2007, dated 2011)
Entries after “also recorded” stand apart in the source; their conditions may differ. Where two headings read alike, the source gives them in different places.

Key:
respiratory brain slices = assay: Neural function in respiratory brain slices during sodium azide-induced anoxia; design: species or system mouse or rat; settings: expected
Source text: Neural function in mammals (mouse or rat) is examined pharmacologically during acute anoxia in respiratory brain slices via sodium azide, which chemically induces anoxia. Following administration of the sodium azide, the time until neural failure is monitored. This is done in the presence of a PDE5 inhibitor, 8-bromo-GMP, KT5823, and Cantharidin.

mammals (mouse or rat) = assay: Spreading depression in mammals; assay type: in vivo; settings: expected
Source text: The pharmacological effects of a PDE5 inhibitor, 8-bromo-GMP, KT5823, and Cantharidin during spreading depression are examined in mammals (mouse or rat).

[1] = tested on: adult Drosophila melanogaster; assay type: in vivo; settings: sitter adults, volatilized from DMSO 1 hr, 1 mM KT5823, 1 mM Cantharidin, 200 mM DCA, 10 mM 8-Bromo cGMP, 10 mM T-0156, versus DMSO sham
Method: FIG. 9 is a diagram illustrating in vivo treatment of adult Drosophila melanogaster with pharmacological agents. […] Adult sitters were exposed to various drugs known to target components of the PKG pathway (FIG. 8A). These drugs included: 10 mM T0156, a cGMP-specific phosphodiesterase-5 inhibitor, 10 mM 8-Bromo-cGMP, a PKG activator, 1 mM KT5823, a PKG inhibitor, 1 mM Cantharidin, a PP2A inhibitor, and 200 mM DCA, a K^+ channel activator. All drugs were solubilized in dimethyl sulfoxide (DMSO), where flies treated with only DMSO were used as sham controls. […] 10 μL of drug solution was applied to a crushed Kim wipe at the bottom of each 10 mL test vial. An additional Kim wipe was crushed over top of this to prevent direct contact between the fly and solution. 10 flies were then placed in the vial which was capped with a semi-permeable buzz-stopper, covered with a cut-out finger of a large latex glove to prevent chemical vapours from escaping, and incubated in the dark. The flies were subjected to the drug for 1 hr prior to each behavioural assay. In the drug combination experiments, 20 uL of DMSO was used as a control sham, and combinations of two pharmacological treatments were added as two separate 10 uL aliquots.
Whether or not fly PKG levels could be manipulated in vivo using a technique that uses volatilization of pharmacological agents was next examined. The role of these targets in vivo using sitter flies was examined by depositing pharmacological agents dissolved in DMSO on a cellulose tissue, and allowing them to volatize over minutes in an air tight vial at room temperature (FIG. 9). Adults were exposed to the volatilized compound for one hour in the dark and then assayed for locomotory resilience to acute hypoxia. Control sham animals (FIG. 7A) were treated with only DMSO. Compounds were chosen to target different components of the cGMP pathway (FIG. 8A) in tracheal smooth muscle and Chinese hamster ovary cells, where cGMP activates PKG, thereby activating PP2A, which then de-phosphorylates K^+ channels. The hypothesis that inhibition of this pathway would result in an increase in whole cell K^+ channel conductance, thereby leading to increased resilience to anoxic coma onset, was tested.
Locomotory Tolerance Assay during Acute Hypoxia: Ten flies (separated into males or females) from each of the three strains (rover [for^R], sitter [for^S] and for^s2) were selected and placed in three separate vials with food at least 24 hours before each experiment. At the time of the experiment, flies were emptied into 10 mL empty test vials covered with permeable sponge caps of equivalent thickness, allowing for consistent gas exchange. These test vials were then placed into a 600 mL beaker which was covered with parafilm, creating a closed chamber with an escape hole (1 cm diameter). The parafilm top was punctured with a needle connected to a gas tank (by a plastic hose), through which the inert gas argon was expelled. […] The needle tip was fastened to the bottom of the beaker and inserted into a larger sponge of similar texture to the vial sponge caps to ensure that gas expelled from the needle was dispersed equally throughout the beaker. Also, to ensure that all test vial positions in the beaker received equal gas flow, test vial positions were alternated every trial to reduce variability.
The experiment required exposing the test vials with 10 flies in the container to pure argon gas expelled from the tank at a flow rate of 600 cc/min+/−5%. Time of behavioural failure was recorded by observing the fly undergo a seizure, which was quickly followed by an anoxic coma.

[2] = tested on: metathoracic ganglion of the locust; assay: SD-like events evoked by high-potassium (KCl 150 mM) injection into the locust metathoracic ganglion; assay type: in vivo, Locusta migratoria
Source text: CSD is increasingly accepted as a primary causative agent for migraine, particularly migraine with aura. The cellular mechanisms underlying stroke, seizures and migraine are not exclusive to mammals. Using the locust (Locusta migratoria), a proven model for examining the effects of heat stress on CNS activity, a rapid rise in extracellular potassium ([K^+]o) during anoxia/hypoxia, extreme heat, and ouabain exposure was monitored. This phenomenon has all the characteristics of SD in the neocortex of mammals. Since the physiological mechanisms observed in locust SD-like events are similar to that of mammals, findings in this insect model are predictably transferable to mammals, including humans. In the locust, model SD-like events were triggered in the CNS by injecting small volumes of saline containing high levels of potassium ions (KCl at 150 mM instead of the nominal resting level of 10 mM) into the metathoracic ganglion. Potassium-sensitive microelectrodes were used to measure SD generated by KCl injections, while manipulating the PKG pathway.
This tissue response is characterised by a transient surge and subsequent clearance of potassium ions in the extracellular space ([K^+]o). During SD-like events ventilatory motor activity ceases. This was monitored using an electromyographic electrode positioned on an abdominal muscle used for ventilation (Ventilatory EMG). Upon restoration of the potassium ion gradient the neural activity recovered and preparations began to ventilate again.
The first injection was used as a control. Following the first injection, animals were allowed 10 minutes of perfusion with standard locust saline before treatment with bath applications of selected drugs (i.e. KT5823, T-0156). All drugs were dissolved in a minimum amount of DMSO before further dilution with standard locust saline to a concentration of 10^−5M and were superfused over the metathoracic ganglion for 10 minutes before the second injection. A total of 20 minutes elapsed between the first and second injection in all experiments. As shown in Figure (Bi), duration at half the maximum amplitude was used to characterize the severity of SD-like events. A significant increase was observed following the second injection when compared to the first in control animals. […] Heat shock (HS) preconditioning reduced SD duration evoked by the first and second injections. […] Numbers in the histogram bars indicate number of preparations tested. Asterisks indicate statistically significant differences between the first and second injection ([…]).
Motor pattern activity was not measured for T-0156/Cantharidin treatments. […] Figure (Cii) illustrates the drug effects by showing the percentage difference in rhythm recovery time (second injection relative to first injection).
Single SD events were evoked by injection of saline (50 nL) containing elevated potassium chloride (150 mM vs. 10 mM) directly into the metathoracic ganglion. […] During SD, ventilatory motor activity monitored electromyographically (EMG) ceased and recovered upon restoration of the potassium ion gradient. The duration of the [K^+]o wave at half its maximal amplitude and the time from failure of motor patterning to the recovery of a ventilatory rhythm were measured. […] Numbers in brackets represent sample size.
As in Example 3, SD events were evoked by injection of saline (50 nL) containing elevated potassium chloride (150 mM vs. 10 mM) directly into the metathoracic ganglion of locust preparations.

Row | SMILES | time until neural failure (respiratory brain slices) | SD-like events and neural function (mammals (mouse or rat)) | time to anoxic coma onset during acute hypoxia, single agents [1] | length of time to recover ventilatory motor pattern activity after SD ([2]; Example 1, bath application 10^-5 M for 10 minutes before second KCl injection) | time to anoxic coma onset during acute hypoxia, single agents ([1]; listed as 8-Bromo cGMP) | time to anoxic coma onset during acute hypoxia, single agents ([1]; listed as 8-bromo cGMP) | recovery time of ventilatory rhythm, second event versus first ([2]; Example 3, drug applied for 10 minutes prior to second injection, FIG. 3D)
1 | COC(=O)[C@@]1(OC)C[C@H]2O[C@]1(C)n1c3ccccc3c3c4c(c5c6ccccc6n2c5c31)C(=O)N(C)C4 [KT5823, (9S, 10R, 12R)-2,3,9,10,11,12-Hexahydro-10-methoxy-2-9-dimethyl-1-oxo-9,12-epoxy-1H-diindolo-[1,2,3-fg:3′,2′,1′-k1]pyrrolo[3,4-i][1,6]benzodiazocine-10-carboxylic acid methyl ester] | neuroprotection and prolonged neural function when subject to anoxia | neuroprotection and reduces SD-like events thereby prolonging neural function | significant increase in tolerance to acute hypoxia; also recorded: demonstrated significant resilience to anoxic coma | untreated preparations and those treated with T-0156 took significantly longer to recover | – | – | –
2 | Nc1nc2c(nc(Br)n2[C@@H]2O[C@@H]3COP(=O)(O)O[C@H]3[C@H]2O)c(=O)[nH]1 [8-Br-cGMP] | increased sensitivity to anoxia causing early failure of neural function | increased SD-like events causing early failure of neural function | – | – | exhibited significant sensitivity to anoxic coma | enhanced sensitivity to acute hypoxia; also recorded: expedited locomotory failure during acute hypoxia of sitters to rover levels | The recovery time was increased
